From the NIST ThermoML archive (doi:10.1016/j.jct.2014.07.026)

Experiment: mn = molality of the nth substance listed, in mol/kg
Conditions: 100 kPa, Liquid; for mass density: Vibrating tube method; for speed of sound: Frequency=2 MHz, Linear variable-path acoustic interferometer

CCCCn1cc[n+](C)c1.CC[C@H](C)[C@H](N)C(=O)[O-] [1-butyl-3-methyl-1H-imidazolium L-isoleucinate] + O
Conditions | mass density [kg/m3] | speed of sound [m/s]
293.15 K, m1 = 0.02906 | 999.041 | –
293.15 K, m1 = 0.04398 | 999.456 | –
293.15 K, m1 = 0.05752 | 999.834 | –
293.15 K, m1 = 0.0722 | 1000.24 | –
293.15 K, m1 = 0.07899 | 1000.43 | –
293.15 K, m1 = 0.1182 | 1001.49 | –
293.15 K, m1 = 0.1456 | 1002.23 | –
293.15 K, m1 = 0.1662 | 1002.78 | –
293.15 K, m1 = 0.1765 | 1003.05 | –
293.15 K, m1 = 0.2502 | 1004.97 | –
293.15 K, m1 = 0.2937 | 1006.09 | –
293.15 K, m1 = 0.3356 | 1007.15 | –
293.15 K, m1 = 0.3802 | 1008.26 | –
298.15 K, m1 = 0.02906 | 997.851 | –
298.15 K, m1 = 0.04398 | 998.255 | –
298.15 K, m1 = 0.0472 | – | 1507.8
298.15 K, m1 = 0.05752 | 998.616 | –
298.15 K, m1 = 0.0722 | 999.019 | –
298.15 K, m1 = 0.07899 | 999.193 | –
298.15 K, m1 = 0.1029 | – | 1519.2
298.15 K, m1 = 0.1182 | 1000.22 | –
298.15 K, m1 = 0.1456 | 1000.93 | –
298.15 K, m1 = 0.1481 | – | 1528.4
298.15 K, m1 = 0.1662 | 1001.47 | –
298.15 K, m1 = 0.1765 | 1001.73 | –
298.15 K, m1 = 0.1974 | – | 1538.3
298.15 K, m1 = 0.2422 | – | 1547.2
298.15 K, m1 = 0.2502 | 1003.6 | –
298.15 K, m1 = 0.2927 | – | 1557.1
298.15 K, m1 = 0.2937 | 1004.66 | –
298.15 K, m1 = 0.3356 | 1005.72 | –
298.15 K, m1 = 0.3455 | – | 1567.6
298.15 K, m1 = 0.3802 | 1006.75 | –
298.15 K, m1 = 0.3987 | – | 1578.2
298.15 K, m1 = 0.4518 | – | 1588.5
298.15 K, m1 = 0.5064 | – | 1599.2
303.15 K, m1 = 0.02906 | 996.433 | –
303.15 K, m1 = 0.04398 | 996.821 | –
303.15 K, m1 = 0.05752 | 997.168 | –
303.15 K, m1 = 0.0722 | 997.554 | –
303.15 K, m1 = 0.07899 | 997.73 | –
303.15 K, m1 = 0.1182 | 998.731 | –
303.15 K, m1 = 0.1456 | 999.436 | –
303.15 K, m1 = 0.1662 | 999.965 | –
303.15 K, m1 = 0.1765 | 1000.2 | –
303.15 K, m1 = 0.2502 | 1002 | –
303.15 K, m1 = 0.2937 | 1003.05 | –
303.15 K, m1 = 0.3356 | 1004.06 | –
303.15 K, m1 = 0.3802 | 1005.08 | –
308.15 K, m1 = 0.03034 | 994.828 | –
308.15 K, m1 = 0.0467 | 995.242 | –
308.15 K, m1 = 0.05983 | 995.575 | –
308.15 K, m1 = 0.07535 | 995.962 | –
308.15 K, m1 = 0.09204 | 996.388 | –
308.15 K, m1 = 0.121 | 997.102 | –
308.15 K, m1 = 0.1452 | 997.702 | –
308.15 K, m1 = 0.1832 | 998.629 | –
308.15 K, m1 = 0.2191 | 999.468 | –
308.15 K, m1 = 0.2631 | 1000.51 | –
308.15 K, m1 = 0.2977 | 1001.31 | –
308.15 K, m1 = 0.3367 | 1002.21 | –
308.15 K, m1 = 0.3802 | 1003.17 | –
313.15 K, m1 = 0.03034 | 992.995 | –
313.15 K, m1 = 0.0467 | 993.401 | –
313.15 K, m1 = 0.05983 | 993.731 | –
313.15 K, m1 = 0.07535 | 994.106 | –
313.15 K, m1 = 0.09204 | 994.515 | –
313.15 K, m1 = 0.121 | 995.217 | –
313.15 K, m1 = 0.1452 | 995.792 | –
313.15 K, m1 = 0.1832 | 996.685 | –
313.15 K, m1 = 0.2191 | 997.538 | –
313.15 K, m1 = 0.2631 | 998.53 | –
313.15 K, m1 = 0.2977 | 999.299 | –
313.15 K, m1 = 0.3367 | 1000.18 | –
313.15 K, m1 = 0.3802 | 1001.15 | –

CC(C)C[C@H](N)C(=O)[O-].CCCCn1cc[n+](C)c1 [1-butyl-3-methylimidazolium L-leucinate] + O
Conditions | mass density [kg/m3] | speed of sound [m/s]
293.15 K, m1 = 0.03697 | 999.215 | –
293.15 K, m1 = 0.05641 | 999.729 | –
293.15 K, m1 = 0.07287 | 1000.17 | –
293.15 K, m1 = 0.09146 | 1000.67 | –
293.15 K, m1 = 0.1132 | 1001.23 | –
293.15 K, m1 = 0.1544 | 1002.32 | –
293.15 K, m1 = 0.1911 | 1003.25 | –
293.15 K, m1 = 0.2335 | 1004.32 | –
293.15 K, m1 = 0.2827 | 1005.52 | –
293.15 K, m1 = 0.3424 | 1007.01 | –
293.15 K, m1 = 0.3957 | 1008.25 | –
293.15 K, m1 = 0.4527 | 1009.6 | –
293.15 K, m1 = 0.5127 | 1010.96 | –
298.15 K, m1 = 0.03697 | 998.03 | –
298.15 K, m1 = 0.04773 | – | 1507.7
298.15 K, m1 = 0.05641 | 998.525 | –
298.15 K, m1 = 0.07287 | 998.954 | –
298.15 K, m1 = 0.09146 | 999.435 | –
298.15 K, m1 = 0.1038 | – | 1519.1
298.15 K, m1 = 0.1132 | 999.978 | –
298.15 K, m1 = 0.1495 | – | 1528.5
298.15 K, m1 = 0.1544 | 1001.01 | –
298.15 K, m1 = 0.1911 | 1001.9 | –
298.15 K, m1 = 0.1994 | – | 1538.3
298.15 K, m1 = 0.2335 | 1002.93 | –
298.15 K, m1 = 0.2447 | – | 1547.3
298.15 K, m1 = 0.2827 | 1004.13 | –
298.15 K, m1 = 0.2957 | – | 1557.1
298.15 K, m1 = 0.3424 | 1005.51 | –
298.15 K, m1 = 0.3491 | – | 1567.5
298.15 K, m1 = 0.3957 | 1006.7 | –
298.15 K, m1 = 0.4035 | – | 1577.8
298.15 K, m1 = 0.4527 | 1008.01 | –
298.15 K, m1 = 0.4605 | – | 1588.7
298.15 K, m1 = 0.5127 | 1009.37 | –
298.15 K, m1 = 0.5164 | – | 1599.4
303.15 K, m1 = 0.03697 | 996.605 | –
303.15 K, m1 = 0.05641 | 997.088 | –
303.15 K, m1 = 0.07287 | 997.496 | –
303.15 K, m1 = 0.09146 | 997.966 | –
303.15 K, m1 = 0.1132 | 998.492 | –
303.15 K, m1 = 0.1544 | 999.496 | –
303.15 K, m1 = 0.1911 | 1000.35 | –
303.15 K, m1 = 0.2335 | 1001.35 | –
303.15 K, m1 = 0.2827 | 1002.52 | –
303.15 K, m1 = 0.3424 | 1003.84 | –
303.15 K, m1 = 0.3957 | 1005.02 | –
303.15 K, m1 = 0.4527 | 1006.25 | –
303.15 K, m1 = 0.5127 | 1007.54 | –
308.15 K, m1 = 0.03562 | 994.921 | –
308.15 K, m1 = 0.05661 | 995.428 | –
308.15 K, m1 = 0.07558 | 995.879 | –
308.15 K, m1 = 0.0961 | 996.37 | –
308.15 K, m1 = 0.114 | 996.791 | –
308.15 K, m1 = 0.1577 | 997.799 | –
308.15 K, m1 = 0.1946 | 998.637 | –
308.15 K, m1 = 0.2469 | 999.798 | –
308.15 K, m1 = 0.2813 | 1000.57 | –
308.15 K, m1 = 0.345 | 1001.95 | –
308.15 K, m1 = 0.3992 | 1003.13 | –
308.15 K, m1 = 0.4555 | 1004.31 | –
308.15 K, m1 = 0.5127 | 1005.43 | –
313.15 K, m1 = 0.03562 | 993.087 | –
313.15 K, m1 = 0.05661 | 993.589 | –
313.15 K, m1 = 0.07558 | 994.031 | –
313.15 K, m1 = 0.0961 | 994.501 | –
313.15 K, m1 = 0.114 | 994.919 | –
313.15 K, m1 = 0.1577 | 995.899 | –
313.15 K, m1 = 0.1946 | 996.701 | –
313.15 K, m1 = 0.2469 | 997.848 | –
313.15 K, m1 = 0.2813 | 998.573 | –
313.15 K, m1 = 0.345 | 999.913 | –
313.15 K, m1 = 0.3992 | 1001.03 | –
313.15 K, m1 = 0.4555 | 1002.11 | –
313.15 K, m1 = 0.5127 | 1003.22 | –
